Assays:
Conditions in all cases: incubation time: 72 h
HDQ-P1 [1] = assay: normalised response (% of control), CellTox Green; higher = less cell death (100 = DMSO, 0 = benzethonium chloride kill control)
Method in brief: (§1)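 Every value is a normalised signal taken at one concentration of a dilution series. Compound was placed in 384-well plates at 5 concentrations in 10-fold steps over a compound-specific 10,000-fold range, and 20 µl of breast cancer cell suspension was seeded onto it. After 72 h, CellTox Green fluorescence (485/520 nm) was measured first and CellTiter-Glo luminescence second, following 10 min at room temperature. Each plate was scaled to 0.1 % DMSO (100) and a positive kill control (0).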

BT-474 [2] = assay: as above
Method in brief: as §1

MDA-MB-453 [3] = assay: as above
Method in brief: as §1

CAL-51 [4] = assay: as above
Method in brief: as §1

HCC1937 = assay: as above
Method in brief: as §1

MDA-MB-436 [5] = assay: as above
Method in brief: as §1

Hs578T [6] = assay: as above
Method in brief: as §1

HCC1143 [7] = assay: as above
Method in brief: as §1

MCF-10A [8] = assay: as above
Method in brief: as §1

MFM-223 [9] = assay: as above
Method in brief: as §1

BT-549 [10] = assay: as above
Method in brief: as §1

CAL-120 [11] = assay: as above
Method in brief: as §1

CAL-85-1 [12] = assay: as above
Method in brief: as §1

HCC1599 [13] = assay: as above
Method in brief: as §1

MDA-MB-231 [14] = assay: as above
Method in brief: as §1

MDA-MB-468 = assay: normalised response (% of control), CellTiter-Glo; higher = more viable cells (100 = DMSO, 0 = benzethonium chloride kill control)
Method in brief: as §1

HDQ-P1 [15] = assay: as above
Method in brief: as §1

BT-474 [16] = assay: as above
Method in brief: as §1

MDA-MB-453 [17] = assay: as above
Method in brief: as §1

CAL-51 [18] = assay: as above
Method in brief: as §1

MDA-MB-436 [19] = assay: as above
Method in brief: as §1

Hs578T [20] = assay: as above
Method in brief: as §1

HCC1143 [21] = assay: as above
Method in brief: as §1

MCF-10A [22] = assay: as above
Method in brief: as §1

CAL-148 = assay: as above
Method in brief: as §1

MFM-223 [23] = assay: as above
Method in brief: as §1

BT-549 [24] = assay: as above
Method in brief: as §1

CAL-120 [25] = assay: as above
Method in brief: as §1

CAL-85-1 [26] = assay: as above
Method in brief: as §1

HCC1599 [27] = assay: as above
Method in brief: as §1

MDA-MB-231 [28] = assay: as above
Method in brief: as §1

SK-BR-3 = assay: as above
Method in brief: as §1

Structure (SMILES) | normalised response (HDQ-P1 [1]) [%] | normalised response (BT-474 [2]) [%] | normalised response (MDA-MB-453 [3]) [%] | normalised response (CAL-51 [4]) [%] | normalised response (HCC1937) [%] | normalised response (MDA-MB-436 [5]) [%] | normalised response (Hs578T [6]) [%] | normalised response (HCC1143 [7]) [%] | normalised response (MCF-10A [8]) [%] | normalised response (MFM-223 [9]) [%] | normalised response (BT-549 [10]) [%] | normalised response (CAL-120 [11]) [%] | normalised response (CAL-85-1 [12]) [%] | normalised response (HCC1599 [13]) [%] | normalised response (MDA-MB-231 [14]) [%] | normalised response (MDA-MB-468) [%] | normalised response (HDQ-P1 [15]) [%] | normalised response (BT-474 [16]) [%] | normalised response (MDA-MB-453 [17]) [%] | normalised response (CAL-51 [18]) [%] | normalised response (MDA-MB-436 [19]) [%] | normalised response (Hs578T [20]) [%] | normalised response (HCC1143 [21]) [%] | normalised response (MCF-10A [22]) [%] | normalised response (CAL-148) [%] | normalised response (MFM-223 [23]) [%] | normalised response (BT-549 [24]) [%] | normalised response (CAL-120 [25]) [%] | normalised response (CAL-85-1 [26]) [%] | normalised response (HCC1599 [27]) [%] | normalised response (MDA-MB-231 [28]) [%] | normalised response (SK-BR-3) [%]
Cc1cc2c(F)c(Oc3ncnn4cc(OC[C@@H](C)O)c(C)c34)ccc2[nH]1 [Brivanib] (1000 nM) | 68.8 | 97.9 | 92.5 | 101 | 112 | 68.3 | 98.4 | 104 | 105 | 98.6 | 95.7 | 100 | 67.4 | 80.2 | 102 |  |  |  |  |  |  |  |  |  |  |  |  |  |  |  |  | 
CC(C)C[C@H](NC(=O)[C@H](CCc1ccccc1)NC(=O)CN1CCOCC1)C(=O)N[C@@H](Cc1ccccc1)C(=O)N[C@@H](CC(C)C)C(=O)[C@@]1(C)CO1 [Carfilzomib] (1000 nM) | -14.6 | 45.7 | 91.3 | 15.1 | 32.8 | 38.2 | -63.5 | 72.1 | -56 | 55.2 | 62.5 | -0.18 | -74.2 | 99.5 | -0.32 |  |  |  |  |  |  |  |  |  |  |  |  |  |  |  |  | 
Nc1nc(Cl)nc2c1ncn2[C@@H]1O[C@H](CO)[C@@H](O)[C@@H]1F [Clofarabine] (10000 nM) | 112 | 105 | 95.2 | 40.6 | 75.6 | 65.6 | 142 | 106 | 110 | 102 | 87.3 | 105 | 60.5 | 93.9 | 90.7 |  |  |  |  |  |  |  |  |  |  |  |  |  |  |  |  | 
CCN(CC)CCOc1ccc(C(=C(Cl)c2ccccc2)c2ccccc2)cc1 [Clomifene] (1000 nM) | 90.2 | 97.6 | 104 | 110 | 82.8 | 83.7 | 102 | 82.3 | 80.3 |  | 114 | 99.7 | 99.8 | 100 | 96 | 103 | 95.9 | 98.5 | 94.2 | 95.2 | 104 | 94.3 | 102 | 101 | 106 | 100 | 95.5 | 102 | 94.2 | 92.7 | 99.2 | 101
C[C@@H]1C[C@H]2[C@@H]3CCC4=CC(=O)C=C[C@]4(C)[C@@]3(F)[C@@H](O)C[C@]2(C)[C@@]1(O)C(=O)CO [Dexamethasone] (10000 nM) | 99.2 | 94 | 100 | 103 | 61.1 | 97.4 | 87.4 | 51.4 | 81.8 | 101 | 100 | 102 | 130 | 94.4 | 139 |  |  |  |  |  |  |  |  |  |  |  |  |  |  |  |  | 
CC(C)C(=O)Nc1ccc([N+](=O)[O-])c(C(F)(F)F)c1 [Flutamide] (10000 nM) | 92.3 | 92.6 | 102 | 100 | 101 | 75.1 | 124 | 96.4 | 106 | 89 | 111 | 98.1 | 103 | 103 | 112 |  |  |  |  |  |  |  |  |  |  |  |  |  |  |  |  | 
COc1cc2c(Oc3ccc(NC(=O)C4(C(=O)Nc5ccc(F)cc5)CC4)cc3F)ccnc2cc1OCCCN1CCOCC1 [Foretinib] (1000 nM) | 58.9 | 97.1 | 93.5 | 37.9 | 99.8 | 81.9 | 75.7 | 46 | 101 | 84.4 | 88.3 | 99.9 | 76.8 | 92 | -15.4 |  |  |  |  |  |  |  |  |  |  |  |  |  |  |  |  | 
NC(=O)c1cccc2cn(-c3ccc([C@@H]4CCCNC4)cc3)nc12 [MK-4827] (1000 nM) |  | 101 | 106 | 82.8 | 104 | 86.7 | 113 | 81.1 | 111 | 101 | 134 | 98.5 | 95.6 | 99.2 | 120 | 101 | 102 | 109 | 140 | 95.2 | 79.3 | 102 | 104 | 106 | 97.6 | 106 | 97.4 | 101 | 105 | 107 | 109 | 98.8
CO[C@H](C(=O)[C@@H](O)[C@@H](C)O)[C@@H]1Cc2cc3cc(O[C@H]4C[C@@H](O[C@@H]5C[C@@H](O)[C@H](O)[C@@H](C)O5)[C@H](O)[C@@H](C)O4)c(C)c(O)c3c(O)c2C(=O)[C@H]1O[C@H]1C[C@@H](O[C@@H]2C[C@@H](O)[C@@H](O[C@@H]3C[C@](C)(O)[C@H](O)[C@@H](C)O3)[C@@H](C)O2)[C@H](O)[C@@H](C)O1 [Plicamycin] (10000 nM) | 82.1 | 96 | 45.7 | -45.3 | 114 | 109 | 40.9 | 82.2 | 9.61 | 88.4 | 79.8 | 71.9 | 39.3 | 87.9 | 55.1 |  |  |  |  |  |  |  |  |  |  |  |  |  |  |  |  | 
CO[C@H]1C[C@@H]2CC[C@@H](C)[C@@](O)(O2)C(=O)C(=O)N2CCCC[C@H]2C(=O)O[C@H]([C@H](C)C[C@@H]2CC[C@@H](O)[C@H](OC)C2)CC(=O)[C@H](C)/C=C(\C)[C@@H](O)[C@@H](OC)C(=O)[C@H](C)C[C@H](C)/C=C/C=C/C=C/1C [Sirolimus] (100 nM) | 108 | 103 | 106 | 99.1 | 49.5 | 94.5 | 106 | 101 | 107 | 103 | 93.7 | 106 | 110 | 106 | 116 |  |  |  |  |  |  |  |  |  |  |  |  |  |  |  |  | 
CN1CCN(c2nc(C3=C(c4c[nH]c5ccccc45)C(=O)NC3=O)c3ccccc3n2)CC1 [Sotrastaurin] (10000 nM) | 102 | 98.4 | 107 | 94.2 | 68.4 | 68.3 | 118 | 93.5 | 104 | 101 | 99.7 | 94.2 | 128 | 102 | 115 |  |  |  |  |  |  |  |  |  |  |  |  |  |  |  |  | 
COc1cc2c(N3CCN(C(=O)Nc4ccc(OC(C)C)cc4)CC3)ncnc2cc1OCCCN1CCCCC1 [Tandutinib] (100 nM) |  | 96.3 | 106 | 96.4 | 112 | 94.2 | 91.6 | 93.2 | 108 | 100 | 129 | 97.3 | 110 | 91.2 | 105 | 103 | 102 | 105 | 97.4 | 96.2 | 114 | 96.3 | 103 | 96.6 | 101 | 101 | 103 | 101 | 109 | 121 | 106 | 98.4
Cn1nnc2c(C(N)=O)ncn2c1=O [Temozolomide] (10000 nM) | 109 | 101 | 101 | 104 | 105 | 94.4 | 111 | 93.6 | 93.2 | 97.3 | 75.3 | 98.5 | 105 | 99.2 | 108 |  |  |  |  |  |  |  |  |  |  |  |  |  |  |  |  | 
CC[C@@H]1C(=O)N(C)c2cnc(Nc3ccc(C(=O)N[C@H]4CC[C@H](N5CCN(CC6CC6)CC5)CC4)cc3OC)nc2N1C(C)C [Volasertib] (1000 nM) | 31.2 | 94.7 | 91.3 | 22.4 | 59.1 | 92.7 | -77.7 | -18.9 | 56.1 | 70.6 | 71 | 63.5 | 88.7 | 74.2 | 95 |  |  |  |  |  |  |  |  |  |  |  |  |  |  |  |  | 
